Assay results as given in paper PMC3734177, “Design, Synthesis, Evaluation and Thermodynamics of 1-Substituted Pyridylimidazo[1,5-a]Pyridine Derivatives as Cysteine Protease Inhibitors” (PLoS ONE, 2013).
≈ marks a conversion by molar mass, not a printed value. Where two headings read alike, the source gives them in different places.

Columns and labels:
Type in all cases: cell-based
[1] = tested on: Bacillus spp. (ATCC-14593); assay: MIC, micro dilution method; settings: ATCC14593; Bacillus sp.
Description: (§1) The disk diffusion method was used for the preliminary antibacterial evaluation of 1-pyridylimidazo[1,5-a]pyridine derivatives. The MIC50 of these derivatives, showing inhibition in the preliminary tests, were further determined by the microtitre plate technique using micro dilution method. In brief, the bacterial strains (S. aureus, P. vulgaris, Group D Streptococci, Bacillus sp., E. coli, P. aeruginosa and S. morganii)) were grown and diluted to 2×10^5 colony-forming units (CFU)/ml in sodium phosphate buffer (SPB) containing 0.03% Luria–Bertani (LB) broth. The synthesized derivatives were dissolved in DMSO and their serial dilution was performed in 50 µL of LB medium in 96-well microtitre plate to achieve the required concentrations (0.1–10 µg/ml) with bacterial inoculums (5×10^4 CFU per well). DMSO was taken as negative control and Ceftriaxone and clotrimazole were taken as positive control. After incubation at 37°C overnight, the MICs were taken as the lowest inhibitor concentration at which the bacterial growth was inhibited. The average of three values was calculated and that was the MIC for the test material and bacterial strain. […]

[2] = tested on: Escherichia coli (ATCC-25922); assay: MIC, micro dilution method; settings: ATCC25922, E. coli
Description: as §1

[3] = tested on: Proteus vulgaris (ATCC-29905); assay: MIC, micro dilution method; settings: ATCC29905, P. vulgaris
Description: as §1

[4] = tested on: Pseudomonas aeruginosa (ATCC-27853); assay: MIC, micro dilution method; settings: ATCC27853
Description: as §1

[5] = tested on: Staphylococcus aureus (ATCC-25923); assay: MIC, micro dilution method; settings: ATCC25923, S. aureus
Description: as §1

[6] = tested on: Group D Streptococci (ATCC-12959); assay: MIC, micro dilution method
Description: (§2) The disk diffusion method was used for the preliminary antibacterial evaluation of 1-pyridylimidazo[1,5-a]pyridine derivatives. The MIC50 of these derivatives, showing inhibition in the preliminary tests, were further determined by the microtitre plate technique using micro dilution method. In brief, the bacterial strains (S. aureus, P. vulgaris, Group D Streptococci, Bacillus sp., E. coli, P. aeruginosa and S. morganii)) were grown and diluted to 2×10^5 colony-forming units (CFU)/ml in sodium phosphate buffer (SPB) containing 0.03% Luria–Bertani (LB) broth. The synthesized derivatives were dissolved in DMSO and their serial dilution was performed in 50 µL of LB medium in 96-well microtitre plate to achieve the required concentrations (0.1–10 µg/ml) with bacterial inoculums (5×10^4 CFU per well). DMSO was taken as negative control and Ceftriaxone and clotrimazole were taken as positive control. After incubation at 37°C overnight, the MICs were taken as the lowest inhibitor concentration at which the bacterial growth was inhibited. The average of three values was calculated and that was the MIC for the test material and bacterial strain.
(§3) For the agar plate count method, 25 µL aliquots of bacteria at 1×10^5 CFU/ml in SPB containing 0.03% LB broth were incubated with 25 µL of diluted compounds for 2 h at 37°C. The mixtures of bacteria and compounds were serially diluted 10-fold with SPB and plated on LB plates that were incubated at 37°C overnight. Bacterial colonies were enumerated the following day.

[7] = tested on: Serratia morganii (ATCC- 31665); assay: MIC, micro dilution method; settings: ATCC31665
Description: as §2, §3

[8] = tested on: Bacillus spp. (ATCC-14593); assay: MBC, sub cultivation from MIC plate; settings: ATCC14593, Bacillus sp.
Description: (§4) After having determined the MICs, bacterial strains from the wells of the microtitre plate with no visible bacterial growth were removed for serial sub cultivation of 2 µl into another new microtitre plate containing 100 µl of broth per well and further incubated for 24 h. The lowest concentration with no visible growth was defined as MBC [28], indicating 99.5% killing of the original inoculum. The absorbance of each well was measured at a wavelength of 620 nm by Microplate Manager 4.0 (Bio-Rad laboratories) and compared with a blank. Solvent (DMSO) was used as a negative control. Three replicates were done for each compound and experiment was repeated two times.

[9] = tested on: Escherichia coli (ATCC-25922); assay: MBC, sub cultivation from MIC plate; settings: ATCC25922, E. coli
Description: as §4

[10] = tested on: Group D Streptococci (ATCC-12959); assay: MBC, sub cultivation from MIC plate
Description: as §4

[11] = tested on: Proteus vulgaris (ATCC-29905); assay: MBC, sub cultivation from MIC plate; settings: ATCC29905, P. vulgaris
Description: as §4

[12] = tested on: Pseudomonas aeruginosa (ATCC-27853); assay: MBC, sub cultivation from MIC plate
Description: as §4

[13] = tested on: Serratia morganii (ATCC- 31665); assay: MBC, sub cultivation from MIC plate
Description: as §4

[14] = tested on: Staphylococcus aureus (ATCC-25923); assay: MBC, sub cultivation from MIC plate; settings: ATCC25923, S. aureus
Description: as §4

[15] = tested on: Bacillus spp. (ATCC-14593); assay: MIC, micro dilution method; settings: ATCC14593; Bacillus sp.; remark: listed apart in the source

Compound | MIC50 [2] [µg/mL] | MIC90 [2] [µg/mL] | MIC50 [3] [µg/mL] | MIC90 [3] [µg/mL] | MIC50 [4] [µg/mL] | MIC90 [4] [µg/mL] | MIC50 [5] [µg/mL] | MIC90 [5] [µg/mL] | MBC ([9]; read-out: MBC50) [µg/mL] | MBC ([9]; read-out: MBC90) [µg/mL] | MBC ([11]; read-out: MBC50) [µg/mL] | MBC ([11]; read-out: MBC90) [µg/mL] | MBC ([12]; ATCC27853, read-out: MBC50) [µg/mL] | MBC ([12]; ATCC27853, read-out: MBC90) [µg/mL] | MBC ([14]; read-out: MBC50) [µg/mL] | MBC ([14]; read-out: MBC90) [µg/mL] | also measured
CO/N=C(\C(=O)N[C@@H]1C(=O)N2C(C(=O)O)=C(CSc3nc(=O)c(=O)[nH]n3C)CS[C@H]12)c1csc(N)n1 [Ceftriaxone, reference compound] | 0.07 (≈ 0.126 µM) | 0.12 (≈ 0.216 µM) | 0.4 (≈ 0.721 µM) | 0.8 (≈ 1.44 µM) | 1.5 (≈ 2.7 µM) | 3 (≈ 5.41 µM) | 3.8 (≈ 6.85 µM) | 6 (≈ 10.8 µM) | 0.14 (≈ 0.252 µM) | 0.24 (≈ 0.433 µM) | 0.9 (≈ 1.62 µM) | 1.2 (≈ 2.16 µM) | 3.2 (≈ 5.77 µM) | 5.5 (≈ 9.92 µM) | 7 (≈ 12.6 µM) | 10 (≈ 18 µM) | MIC50 [1]: 0.8 µg/mL (≈ 1.44 µM); MIC50 [6]: 0.08 µg/mL (≈ 0.144 µM); MIC90 [6]: 1.4 µg/mL (≈ 2.52 µM); MIC50 [7]: 0.9 µg/mL (≈ 1.62 µM); MIC90 [7]: 1.5 µg/mL (≈ 2.7 µM); MBC ([8]; read-out: MBC50): 1.7 µg/mL (≈ 3.07 µM); MBC ([8]; read-out: MBC90): 3.1 µg/mL (≈ 5.59 µM); MBC ([10]; read-out: MBC50): 1.5 µg/mL (≈ 2.7 µM); MBC ([10]; read-out: MBC90): 1.9 µg/mL (≈ 3.43 µM); MBC ([13]; ATCC31665, read-out: MBC50): 1.7 µg/mL (≈ 3.07 µM); MBC ([13]; ATCC31665, read-out: MBC90): 3.3 µg/mL (≈ 5.95 µM); MIC90 [15]: 1.6 µg/mL (≈ 2.89 µM)
Clc1ccccc1C(c1ccccc1)(c1ccccc1)n1ccnc1 [Clotrimazole, 1-[(2-chlorophenyl)(diphenyl)methyl]-1H-imidazole, reference compound] | 45 (≈ 130 µM) | 85 (≈ 246 µM) | 0.00084 (≈ 0.00244 µM) | 0.00145 (≈ 0.0042 µM) | 40 (≈ 116 µM) | 75 (≈ 217 µM) | 0.0009 (≈ 0.00261 µM) | 0.0016 (≈ 0.00464 µM) | 75 (≈ 217 µM) | 144 (≈ 418 µM) | 0.0014 (≈ 0.00406 µM) | 0.0032 (≈ 0.00928 µM) | 68 (≈ 197 µM) | 134 (≈ 389 µM) | 0.0014 (≈ 0.00406 µM) | 0.003 (≈ 0.0087 µM) | 
